{
  "source": "patent US20240415113A1",
  "about": "“COMPOSITION AND METHOD FOR ATTRACTING VESPID WASPS” (BanfieldBio Inc., priority 2023, published 2024)",
  "origin": "cited, not measured here",
  "key": {"western yellowjackets": {"system": "western yellowjackets", "settings": "Oregon peach orchard, 10 days in 1969"}, "vespid wasps": {"system": "vespid wasps", "settings": "50 μL heptyl butyrate and 1 g chicken meat extract, separately or together in the receiving chamber"}},
  "data": [
    {"smiles": "CCCCCCCOC(=O)CCC", "note": "[Heptyl butyrate]", "values": [
      {"measurement": "western yellowjackets captured per trap", "setting": "western yellowjackets", "value": "over 800 western yellowjackets per trap"},
      {"measurement": "trap catch comparison in words", "setting": "vespid wasps", "value": "impeded entry into traps baited with the chicken extract"}
    ]}
  ]
}
